pIC50, pKi: −log10 of the molar value.

In one data set the test system is MC38. Description: Inhibition of HDAC in mouse MC38 cells assessed as increase in acetyl-histone H3 measured after 24 hrs by Western blot analysis. It counts as cell-based.
The target in the next data set is T1, Histone deacetylase 7 (Homo sapiens, UniProt Q8WUI4).
T1 sequence (Q8WUI4 whole entry): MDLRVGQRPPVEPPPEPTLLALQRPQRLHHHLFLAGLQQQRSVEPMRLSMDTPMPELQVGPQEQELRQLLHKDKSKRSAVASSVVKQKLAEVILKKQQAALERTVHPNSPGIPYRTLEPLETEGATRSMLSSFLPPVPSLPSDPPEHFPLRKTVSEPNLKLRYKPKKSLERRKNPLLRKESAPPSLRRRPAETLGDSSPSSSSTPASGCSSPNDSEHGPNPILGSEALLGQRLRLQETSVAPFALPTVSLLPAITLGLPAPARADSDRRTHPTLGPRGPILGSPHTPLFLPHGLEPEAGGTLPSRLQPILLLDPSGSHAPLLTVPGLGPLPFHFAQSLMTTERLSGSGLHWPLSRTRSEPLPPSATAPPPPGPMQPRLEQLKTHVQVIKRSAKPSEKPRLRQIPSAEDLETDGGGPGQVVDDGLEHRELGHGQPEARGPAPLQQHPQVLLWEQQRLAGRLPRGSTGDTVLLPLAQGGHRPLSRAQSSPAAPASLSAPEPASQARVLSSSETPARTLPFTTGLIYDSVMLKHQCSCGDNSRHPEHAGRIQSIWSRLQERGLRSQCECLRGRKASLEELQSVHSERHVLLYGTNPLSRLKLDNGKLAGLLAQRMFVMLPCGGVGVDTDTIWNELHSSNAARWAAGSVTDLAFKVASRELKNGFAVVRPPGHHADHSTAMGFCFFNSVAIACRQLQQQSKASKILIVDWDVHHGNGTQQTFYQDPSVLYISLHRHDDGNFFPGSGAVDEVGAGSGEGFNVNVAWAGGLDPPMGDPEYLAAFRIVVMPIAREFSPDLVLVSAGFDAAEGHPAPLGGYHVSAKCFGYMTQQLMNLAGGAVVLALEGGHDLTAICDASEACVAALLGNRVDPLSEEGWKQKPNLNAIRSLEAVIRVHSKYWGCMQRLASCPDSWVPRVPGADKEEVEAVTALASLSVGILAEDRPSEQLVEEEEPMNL
Briefly: Inhibition of HDAC7 (unknown origin) assessed as release of 7-amino-4-methylcoumarin incubated in room temperature for 15 min measured by Spectra max microtitre plate reader.

A further data set concerns the target T2, Adenosine receptor A3 (Homo sapiens, UniProt P0DMS8).
T2 sequence (P0DMS8 whole entry): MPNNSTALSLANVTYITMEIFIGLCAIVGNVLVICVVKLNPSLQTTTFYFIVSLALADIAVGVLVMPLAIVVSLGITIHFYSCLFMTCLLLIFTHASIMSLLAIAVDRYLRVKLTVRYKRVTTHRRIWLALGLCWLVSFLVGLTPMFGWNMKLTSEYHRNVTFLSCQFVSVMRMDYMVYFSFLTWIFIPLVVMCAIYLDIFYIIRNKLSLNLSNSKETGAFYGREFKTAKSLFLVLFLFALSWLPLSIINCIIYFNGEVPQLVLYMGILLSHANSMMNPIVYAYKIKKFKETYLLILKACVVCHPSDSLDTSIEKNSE
Briefly: Displacement of [3H]DPCPX from human adenosine A3 receptor membrane (unknown origin) measured after 60 mins by scintillation counting analysis. It counts as cell membranes.

For another data set, the target named is Histone deacetylase 5 (Homo sapiens, UniProt Q9UQL6). Briefly: Inhibition of HDAC5 (unknown origin) assessed as release of 7-amino-4-methylcoumarin incubated in room temperature for 15 min measured by Spectra max microtitre plate reader.
Sequence of Histone deacetylase 5 (Q9UQL6 whole entry): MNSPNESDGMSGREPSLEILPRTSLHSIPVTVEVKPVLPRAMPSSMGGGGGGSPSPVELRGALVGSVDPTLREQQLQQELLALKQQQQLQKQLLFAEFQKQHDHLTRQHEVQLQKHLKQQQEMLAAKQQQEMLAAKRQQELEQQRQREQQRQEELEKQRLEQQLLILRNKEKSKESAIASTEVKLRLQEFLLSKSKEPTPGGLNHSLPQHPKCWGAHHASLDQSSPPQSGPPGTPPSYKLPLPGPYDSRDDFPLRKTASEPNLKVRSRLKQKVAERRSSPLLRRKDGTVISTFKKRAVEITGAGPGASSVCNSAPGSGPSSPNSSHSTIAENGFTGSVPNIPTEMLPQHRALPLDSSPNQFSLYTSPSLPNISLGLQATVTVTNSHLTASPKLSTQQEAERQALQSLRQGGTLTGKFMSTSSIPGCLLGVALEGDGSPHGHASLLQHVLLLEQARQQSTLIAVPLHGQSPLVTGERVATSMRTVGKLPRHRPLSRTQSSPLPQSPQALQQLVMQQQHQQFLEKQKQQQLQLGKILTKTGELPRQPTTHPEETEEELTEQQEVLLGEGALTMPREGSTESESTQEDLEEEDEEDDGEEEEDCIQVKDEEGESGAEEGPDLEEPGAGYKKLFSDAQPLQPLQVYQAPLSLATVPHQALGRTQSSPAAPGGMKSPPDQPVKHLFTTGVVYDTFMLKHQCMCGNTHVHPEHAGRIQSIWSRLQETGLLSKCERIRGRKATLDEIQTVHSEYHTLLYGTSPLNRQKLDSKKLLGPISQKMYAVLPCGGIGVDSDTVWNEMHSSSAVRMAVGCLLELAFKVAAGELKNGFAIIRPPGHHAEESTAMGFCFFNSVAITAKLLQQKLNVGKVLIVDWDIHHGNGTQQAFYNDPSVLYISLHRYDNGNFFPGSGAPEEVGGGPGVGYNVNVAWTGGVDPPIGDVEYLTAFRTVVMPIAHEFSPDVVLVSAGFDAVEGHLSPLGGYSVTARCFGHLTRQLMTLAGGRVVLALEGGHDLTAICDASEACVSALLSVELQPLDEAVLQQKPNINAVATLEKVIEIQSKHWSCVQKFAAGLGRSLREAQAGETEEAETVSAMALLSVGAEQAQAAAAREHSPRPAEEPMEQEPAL
For a further data set, the target named is T3, Adenosine receptor A1 (Homo sapiens, UniProt P30542).
T3 sequence (P30542 whole entry): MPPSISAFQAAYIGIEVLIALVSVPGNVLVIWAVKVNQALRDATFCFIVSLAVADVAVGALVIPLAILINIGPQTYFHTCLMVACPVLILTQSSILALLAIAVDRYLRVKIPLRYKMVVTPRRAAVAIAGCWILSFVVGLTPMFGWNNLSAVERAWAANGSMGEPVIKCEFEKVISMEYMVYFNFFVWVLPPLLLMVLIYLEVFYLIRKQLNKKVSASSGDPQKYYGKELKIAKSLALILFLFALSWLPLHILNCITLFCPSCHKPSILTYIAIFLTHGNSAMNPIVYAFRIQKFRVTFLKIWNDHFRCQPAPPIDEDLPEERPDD
Briefly: Displacement of [3H]DPCPX from human adenosine A1 receptor membrane (unknown origin) measured after 60 mins by scintillation counting analysis. It counts as cell membranes.

Data set [1] is described as follows: Clearance in ICR mouse at 5 mg/kg, iv up to 24 hrs by LC-MS/MS analysis. The following applies: in vivo. It counts as ADME, organism-based.
Data set [2] in a line: Cmax in ICR mouse at 5 mg/kg, iv up to 24 hrs by LC-MS/MS analysis. Details: route intravenous, dose 5 mg/kg, time <=24. The settings on record: in vivo. It counts as ADME, organism-based.
Data set [3] in a line: AUC (0 to infinity) in ICR mouse at 20 mg/kg, ip up to 24 hrs by LC-MS/MS analysis. It counts as ADME, organism-based. More on the design: route intraperitoneal, dose 20 mg/kg, time <=24. The settings on record: in vivo.
Data set [4] can be described thus: AUC (0 to […]) in ICR mouse at 20 mg/kg, ip up to 24 hrs by LC-MS/MS analysis. It counts as ADME, organism-based. Details: route intraperitoneal, dose 20 mg/kg, time <=24. The following applies: in vivo.
A short description of data set [5]: Elimination rate constant in ICR mouse at 20 mg/kg, ip up to 24 hrs by LC-MS/MS analysis. It counts as ADME, organism-based. The settings on record: in vivo.
Data set [6] can be described thus: Toxicity in C57BL/6 mouse assessed as loss in body weight at 30 to 60 mg/kg, ip, bid measured after 9 days. It counts as organism-based. The following applies: in vivo, 216 h, dose 30-60 mg/kg, time 9 day.

With `Nc1ccccc1NC(=O)c1ccc(CCn2ncc3c2nc(N)n2nc(-c4ccco4)nc32)cc1`, the Activity result in the data set with MC38 was “Dose-Dependent Effect”; in data set [6], “Toxic”. Moreover, the pIC50 on Histone deacetylase 7 and on Histone deacetylase 5 was < 5.00 throughout. For the same compound, the pKi at Adenosine receptor A3 was < 5.00; on Adenosine receptor A1, 7.15. The clearance in [1] came out at 59 mL/min/kg. Also, in data set [2], the Cmax was 3320 ng/mL. Besides, the AUC(0-inf) in data set [3] is 6630 ng·h/mL. In addition, the AUC(0-t) in data set [4] turned out to be 6540 ng·h/mL. Further, in data set [5], the k el at 24 h is 0.000138 s⁻¹.

The record behind these values is ChEMBL document CHEMBL5030563, “Structure-Based Design of Dual-Acting Compounds Targeting Adenosine A2A Receptor and Histone Deacetylase as Novel Tumor Immunotherapeutic Agents” (J Med Chem, 2021).
